Data taken from US9303069B2, “Peptides for treating cancer” (University of Mississippi Medical Center, priority 2014, dated 2016).

Experiments:
Format in all cases: cell-based, human
[1] = system: HOSE and HOSE/IRIS cells; experiment: Survival of HOSE versus HOSE/IRIS cells; conditions: 10 μM inhibitor, 24 hours
Experimental: To test that, HOSE or HOSE/IRIS cells were incubated for 24 hours with 10 μM of ErbB2 (CP-724714), EGFR (Erlotinib), TrkB (K252a), JNK (SP600125), p38 (SB203580), ERK (PD98059) and PI3′K/AKT (LY294002) inhibitors. […] Taken together, BRCA1-IRIS overexpression activates AKT and ERK, thereby inactivating FOXO3a and promoting Cyclin D1, survivin, Bcl-2 and NF-κB expression and suppressing p27 expression (FIG. 15).
HOSE cells overexpressing IRIS show a higher degree of resistance to cisplatin than HOSE cells (compare blue to black line in FIG. 30).
Cell viability measurement. Cell viability under different experimental conditions was determined using the MTS assay […]. Briefly, SKOV3, OVACAR3, HOSE and HOSE/IRIS cells (2.5×10^4 cells per well) were seeded in 96 well plates and incubated overnight at 37° C. in 10% humidified CO2 atmosphere in varying concentrations of IRIS peptide, or inhibitors of ErbB2 (CP-724714), EGFR (Erlotinib), TrkB (K252a), JNK (SP600125), p38 (SB203580), ERK (PD98059) and PI3′K/AKT (LY294002) inhibitors for 24 hours at 37° C. Cell Titer 96® Aqueous (Promega, Madison, Wis., USA) was used to measure viability following manufactures instructions. Cell viability (%) was expressed as a ratio to control cells×100. Growth inhibition was also determined by manually counting cells in five different microscopic fields. Change in cell numbers (fold) was expressed as a ratio to control cells×100. All experiments were done in at least triplicates, three different times. * is p≦0.05, ** is p≦0.001 and *** is p≦0.0001.

[2] = system: HME and HME/IRIS cells; experiment: Survival of HME versus HME/IRIS cells with pathway inhibitors; conditions: 10 μM inhibitor, 24 hours
Experimental: Similar numbers of HME or HME/IRIS were grown in the presence of 10 μM of ERK (PD98059), JNK (SP600125), p38 (SB203580), EGFR (Erlotinib), ErbB2 (CP-724714) or PI3′K/AKT (LY294002) inhibitors for 24 hours. In keeping with published data (Nakuci et al., 2006; Hao and ElShamy, 2007; Chock et al., 2010a), BRCA1-IRIS overexpression promoted cells proliferation (FIG. 73). Thus, data are represented as percentage of treatment compared to no treatment in each cell line separately. […] Thus, as expected, cells overexpressing BRCA1-IRIS exerts some of their functions through EGFR/ErbB2 that feeds into PI3′K/AKT/mTOR and MAPK signaling pathways (FIG. 74).
Cell viability measurement. Cell viability under different experimental conditions was determined using the MTS assay. Briefly, cells (2.5×10^4 cells per well) were seeded in 96-well plates and incubated overnight at 37° C. in 10% humidified CO2 atmosphere. The next day they were incubated with varying concentration of peptide, or inhibitors for 24 hours at 37° C. Cell viability was determined using cell Titer 96® Aqueous (Promega, Madison, Wis., USA) following manufacturer's instructions. Cell viability (%) was expressed as a ratio of treated cells to control cells×100. Growth inhibition was also determined by manually counting cells in five different microscopic fields. Change in cell numbers (fold) was expressed as a ratio of the means of these recording of treated cells compared to control cells×100. Each experiment was done in triplicate, repeated three separate times.

[3] = system: AKT, ERK, MDM2 and Skp2; experiment: Signalling proteins in SKOV3 and OVCAR3 cells (Western)
From the text: Finally, to further dissect the IRIS-induced cisplatin resistance pathway, PI3′K/AKT (using […]) and ERK (using PD98059) were inactivated and compared to IRIS peptide in two aggressive ovarian cancer cell lines. […] Phosphorylation of cytoplasmic or nuclear FOXO3a by p-AKT and/or p-ERK promotes MDM2 binding and priming ubiquitylation, which is then followed by Skp2 branching ubiquitylation and FOXO3a degradation (Huang and Tindall, 2011). FOXO was less phosphorylated in LY, PD as well as IRIS-silenced/inactivated SKOV3 or OVCAR3 cells (FIG. 34). […] Consistently, in BRCA1-IRIS silenced/inactivated cells accumulation of unphosphorylated/stabilized FOXO3a was detected. In contrast, FOXO3a was still decreased to different degrees in LY or PD treated cells (FIG. 34).

[4] = system: AKT, p-AKT, p-FOXO and FOXO3a; experiment: Signalling proteins in MDA-MB-231 and MDA-MB-468 cells (Western); conditions: 5 μM IRIS peptide, 10 μM LY294002 or 10 μM PD98059, 24 hours
From the text: This was completely in line with decreased MDM2 and Skp2 (the ubiquitin ligases responsible for p-FOXO degradation) expression in BRCA1-IRIS silenced and BRCA1-IRIS and AKT inactivated cells (FIG. 87).

[5] = system: BRCA1-IRIS; experiment: BRCA1-IRIS expression in breast cells (Western); conditions: MDA-MB-231 and MDA-MB-468; 5 μM IRIS peptide, 10 μM LY294002 or 10 μM PD98059 24 hours; siRNA 72 hours
Experimental: HME and HME/IRIS cells were treated with 10, 20 and 50 μM of paclitaxel for 24 hours. Compared to HME/IRIS cells, untreated HME cells express very low level of BRCA1-IRIS (FIG. 68, left). […] Both EGF and NRG1, which were secreted at higher levels from untreated HME/IRIS cells, remained high after paclitaxel (until ˜50 μM, FIG. 68, left), whereas in HME cells, both were induced by low paclitaxel treatment (FIG. 68, left). Consistently, in HME/IRIS cells EGFR was phosphorylated on Y1173 (activated by EGF when EGFR is in complex with ErbB2) and ErbB2 on Y1248 (activated by NRG1 when ErbB2 is in complex with ErbB3) remained the same after paclitaxel treatment (until ˜50 μM, FIG. 68, left). Phosphorylated EGFR-Y1173 and ErbB2-Y1248 was only observed in paclitaxel treated HME cells, especially at low concentration (FIG. 68, left).
Survived/paclitaxel-resistant cells were then propagated in the absence of paclitaxel and analyzed. Again, the intrinsically high level of BRCA1-IRIS was not affected by paclitaxel in HME/IRIS cells (FIG. 69, left). […] The expressions of EGFR, ErbB2 and ErbB3 were high in HME/IRIS and HME cells (FIG. 69, left). Despite an intrinsic increase in HME/IRIS and paclitaxel-acquired increase in HME cells in AKT activation, FOXO inactivation/degradation and thus activation increase in CyclinD1, survivin, Bcl-2, Bcl-xL and NF-κB was observed (FIG. 69, right).
To test that hypothesis, an intron 11 peptide (right in FIG. 26) fused to a cell/nucleus penetrating signal at its N-terminus (left in FIG. 26) was synthesized (hereafter IRIS peptide). First, to assess the effect of this IRIS peptide, equal numbers of HME, HME/IRIS, MDA-MB-231, MDA-MB-468 and BT549 cells were exposed to increasing concentrations of scrambled or IRIS peptide for 48 hours. […] It is possible that preventing BRCA1-IRIS-X complex formation destabilizes BRCA1-IRIS and perhaps leads to its degradation.
To investigate whether inactivating BRCA1-IRIS could sensitize TNBC to paclitaxel-induced cell death, HME cells were exposed to 0.5 μM, while HME/IRIS, MDA-MB-231, MDA-MB-468 and BT549 cells were exposed to 5 μM of IRIS peptide alone or with 5, 10 or 20 μM of paclitaxel for 24 hours. […] Again, IRIS peptide alone at these concentrations led to 50% reduction in survival of all cell lines. […] Indeed, in the presence of IRIS peptide >60%, >70% and >90% reduction in the survival of all cell lines in the presence of 5, 10 and 20 μM of paclitaxel, respectively (FIG. 84).
To relate the effect of IRIS peptide on cell survival to the effect of BRCA1-IRIS on AKT and ERK survival pathways, MDA-MB-231 and MDA-MB-468 were treated with vehicle, 5 μM of IRIS peptide, 10 μM LY294002, 10 μM PD98059 for 24 hours or were transfected with BRCA1-IRIS siRNA for 72 hours.

Structure (SMILES): COCC(=O)NC/C=C/c1ccc2ncnc(Nc3ccc(Oc4ccc(C)nc4)c(C)c3)c2c1 [CP-724714]
- effect on survival of HOSE versus HOSE/IRIS cells [1]: significantly decreased survival of HOSE/IRIS cells only
- effect on survival of HME versus HME/IRIS cells [2]: specifically reduced survival in HME/IRIS and not HME cells

Structure (SMILES): COC(=O)[C@@]1(O)C[C@H]2O[C@]1(C)n1c3ccccc3c3c4c(c5c6ccccc6n2c5c31)C(=O)NC4 [K252a]
- effect on survival of HOSE versus HOSE/IRIS cells [1]: significantly decreased survival of HOSE/IRIS cells only

Structure (SMILES): COc1cccc(-c2cc(=O)c3ccccc3o2)c1N [PD98059]
- effect on survival of HOSE versus HOSE/IRIS cells [1]: significantly decreased survival of HOSE/IRIS cells only
- AKT and ERK expression and activation [3]: significantly inactivated their cognate protein
- MDM2 and Skp2 expression [3]: reduced Skp2 and not MDM2 expression
- effect on survival of HME versus HME/IRIS cells [2]: specifically reduced survival in HME/IRIS and not HME cells
- p-FOXO and FOXO3a levels [4]: no effect
- BRCA1-IRIS expression [5]: significantly reduced BRCA1-IRIS expression in MDA-MB-231 and to a lesser degree in MDA-MB-468

Structure (SMILES): C[S+]([O-])c1ccc(-c2nc(-c3ccncc3)c(-c3ccc(F)cc3)[nH]2)cc1 (stereo not shown) [SB203580]
- effect on survival of HOSE versus HOSE/IRIS cells [1]: equally decreased survival of HOSE and HOSE/IRIS cells
- effect on survival of HME versus HME/IRIS cells [2]: no effect on either cell line

Structure (SMILES): C#Cc1cccc(Nc2ncnc3cc(OCCOC)c(OCCOC)cc23)c1 [Erlotinib]
- effect on survival of HOSE versus HOSE/IRIS cells [1]: equally decreased survival of HOSE and HOSE/IRIS cells
- effect on survival of HME versus HME/IRIS cells [2]: reduced survival of both cell lines
